Results: patent US20170226139A1, “CRYSTALLINE SALTS OF (Z)-O-OCTADEC-9-EN-1-YL O,O-DIHYDROGEN PHOSPHOROTHIOATE” (priority 2013, published 2017)
Read-outs that look alike come from different tables or passages of the source.

Columns and labels:
Type in all cases: in vivo
[1] = tested on: female murine Animal Model of GI-ARS (TAI); experiment: Survival after total abdominal irradiation (TAI), murine model of GI-ARS (UTHSC, 2010); conditions: UTHSC 2010 (TAI), 0.1 mg/kg, start +24, 15.0 Gy, non-GLP
Procedure: These Animal Model studies were all conducted using partial body irradiation (PBI) with tibial bone marrow sparing except the earliest study which was performed with Total Abdominal Irradiation (TAI). The male Rhesus macaque model was developed by MacVittie. The female inbred murine PBI GI-ARS Animal Model was developed by the inventors. […] Differences in radiation sensitivity by gender in rodent species are well appreciated. We are not aware of PBI GI-ARS models other than these that meet criteria required to conduct a prospective, blinded, controlled, randomized study of efficacy.

[2] = Subcutaneous and intravenous pharmacokinetics in healthy and irradiated Rhesus Macaques
Procedure: We performed a cross-over comparison of subcutaneous and intravenous pharmacokinetics of Rx100.L-Lysine in six healthy Rhesus Macaques and subcutaneous pharmacokinetic and Pharmacodynamics of Rx100.L-Lysine after a single irradiation in six Rhesus Macaques.
Rhesus macaques (male, 3-5 kg) were administered vehicle control article (10 mM Histidine in sterile water for Injection, USP) or Rx100.Lysine salt as a single injection via subcutaneous injection or as an intravenous bolus as indicated in Table 32.
Blood was collected at baseline (7-10 days prior to dose administration), pre-dose (within 30 minutes), 0.5, 1, 2, 4, 6, 8, 24, 48, 72, 96, and 120 hours after dosing for phases 1 and 2. The phase 3 (post-irradiation phase) blood was collected at baseline (7-10 days prior to dose administration), pre-dose (within 30 minutes), 0.5, 1, 2, 4, 6, 8, 24, 48, 72, and 96 hours after dosing. The dose in phase 3 was administered approximately 24 hours after exposure to 11.5 Gy Partial Body Irradiation. Samples, approximately 1.0 mL, were collected and maintained on wet ice in vials containing Di-Potassium EDTA until centrifugation. Samples were stored in a freezer set to maintain −70° C. to −90° C. until shipped on dry ice for analysis.
Analysis was performed using qualified and validated Phoenix® WinNonlin® Software and RxBio™ SOP PRE-0030™, Phoenix® WinNonlin® Software for Statistical Analysis. The final data provided was imported into Phoenix® WinNonlin®. All data presented were generated using the validated Phoenix® WinNonlin® Software. Concentrations reported as BLOQ were treated as missing values for the purpose of this analysis. A non-compartmental pharmacokinetic analysis was performed for each subject separately for IV, SC, and SC+IR. The automatic terminal slope selector function was used along with nominal dose (1 mg/kg) with a dosing interval set at 120 hours since this was a single dose study. The terminal slope was selected from the last 3 quantifiable plasma concentrations for each subject (48-96 hours for the Phase 3 Irradiated subjects and 72-120 for all healthy subjects). Selected pharmacokinetic estimations are presented in Table 33, time of maximum concentration (Tmax (h)), maximum concentration observed (Cmax (ng/mL)), exposure or area under the concentration vs time curve (AUC (h*ng/mL)), volume of distribution (Vz_F ([…])), clearance (CL_F (mL/h/kg), and half-life (T½ or HL_Lambda_z (h)).

Male Sprague-Dawley rats = experiment: Respiratory system safety pharmacology (plethysmograph)
Procedure: Male Sprague-Dawley rats (n=6/group) were administered Rx100.lysine as a single oral (gavage) doses of 0 (10 mM histidine in sterile water for injection, USP), 1.81, 6.33, and 18.1 mg/kg and monitored for respiratory function. Animals were placed in a plesthymograph and monitored at pre-dose and for consecutive 30 minute averages beginning 30 minutes postdose through 6 hours postdose and again at 24 hours postdose. Parameters evaluated included tidal volume, respiratory rate and minute volume. […] It was concluded that there were no adverse effects on the respiratory system in rats at doses of 1.81 mg/kg.

[3] = SC 1 mg/kg about 24 h after 11.5 Gy, Average of 6 animals
[4] = SC 1 mg/kg, healthy, Average of 6 animals
[5] = male, rhesus monkey, plasma, iv, 1 mg/kg, IV 1 mg/kg, healthy, Average of 6 animals
[6] = male, rhesus monkey, plasma, iv, 1 mg/kg, IV 1 mg/kg, healthy, individual animals (ID in c1)
[7] = male, rhesus monkey, plasma, sc, 1 mg/kg, SC 1 mg/kg about 24 h after 11.5 Gy, Average of 6 animals
[8] = male, rhesus monkey, plasma, sc, 1 mg/kg, SC 1 mg/kg, healthy, Average of 6 animals

For `CCCCCCCC/C=C\CCCCCCCCOP(O)(O)=S` [Rx100, (Z)—O-octadec-9-en-1-yl O,O-dihydrogen phosphorothioate], the “Survival, Rx100 arm (survivors/animals)” value ([1]; single cell under Day 10/Day ≧30) was 10/14 and the “Survival advantage” value ([1]; single cell under Day 10/Day ≧30, vs vehicle) was 42%.
For `CCCCCCCC/C=C\CCCCCCCCOP(O)(O)=S` [Rx100.L-Lysine, (Z)—O-octadec-9-en-1-yl O,O-dihydrogen phosphorothioate], the λz ([2]; IV 1 mg/kg, healthy, Average of 6 animals) was 0.049 ± 0.020 h⁻¹, the CL [2, 3] was 0.02 ± 0.007 L/h/kg and the Vd [2, 3] was 0.251 ± 0.091 L/kg. The λz [2, 3] was 0.079 ± 0.006 h⁻¹, the Vd [2, 4] was 0.26 ± 0.083 L/kg and the λz [2, 4] was 0.066 ± 0.004 h⁻¹. For the same compound, the F ([2]; SC post IR) was 0.89±0.2, the “clearance (CL)” value ([2]; SC post IR, 1 mg/kg) was 0.02 ± 0.007 L/h/kg and the “volume of distribution (Vd)” value ([2]; SC post IR, 1 mg/kg) was 0.251 ± 0.091 L/kg. The “fraction absorbed after subcutaneous administration (F)” value ([2]; SC, healthy, versus IV) was 1.0±0.18, the “volume of distribution (Vd)” value ([2]; SC, healthy, single dose 1 mg/kg) was 0.26 ± 0.083 L/kg and the AUC [2, 5] was 63.2 ± 15.1 µg·h/mL. For the same compound, the Cmax [2, 5] was 18.7 ± 1.77 µg/mL, the AUC(0-inf) ([2]; male, rhesus monkey, plasma, iv, 1 mg/kg, IV 1 mg/kg, healthy, Average of 6 animals, read-out: AUCINF) was 63.2 ± 15.1 µg·h/mL and the clearance ([2]; male, rhesus monkey, plasma, iv, 1 mg/kg, IV 1 mg/kg, healthy, Average of 6 animals, read-out: CL (converted)) was 0.017 L/h/kg. The half-life ([2]; male, rhesus monkey, plasma, iv, 1 mg/kg, IV 1 mg/kg, healthy, Average of 6 animals, read-out: T1/2 (converted)) was 16.4 ± 7.29 h, the Vd ([2]; male, rhesus monkey, plasma, iv, 1 mg/kg, IV 1 mg/kg, healthy, Average of 6 animals, read-out: Vd) was 0.428 ± 0.29 L/kg and the AUC [2, 6] was 73.5 µg·h/mL. It also gave a Cmax [2, 6] of 15.9 µg/mL, an AUC(0-inf) ([2]; male, rhesus monkey, plasma, iv, 1 mg/kg, IV 1 mg/kg, healthy, individual animals (ID in c1), read-out: AUCINF) of 73.5 µg·h/mL and a clearance ([2]; male, rhesus monkey, plasma, iv, 1 mg/kg, IV 1 mg/kg, healthy, individual animals (ID in c1), read-out: CL (converted)) of 0.014 L/h/kg. It also gave a clearance ([2]; male, rhesus monkey, plasma, iv, 1 mg/kg, IV, healthy, 1 mg/kg, read-out: clearance (CL) (converted)) of 0.017 L/h/kg, an AUC(0-inf) ([2]; male, rhesus monkey, plasma, iv, 1 mg/kg, IV, healthy, 1 mg/kg, read-out: exposure (AUCINF)) of 63.2 ± 15.1 µg·h/mL and a half-life ([2]; male, rhesus monkey, plasma, iv, 1 mg/kg, IV, healthy, 1 mg/kg, read-out: half-life (converted)) of 16.4 ± 7.29 h. It also gave a Vd ([2]; male, rhesus monkey, plasma, iv, 1 mg/kg, IV, healthy, 1 mg/kg, read-out: volume of distribution (Vd)) of 0.428 ± 0.29 L/kg, a half-life ([2]; male, rhesus monkey, plasma, iv, 1 mg/kg, IV, healthy, read-out: half-life, range of individual subjects) of 9.37 to 28.8 h and a Cmax ([2]; male, rhesus monkey, plasma, iv, 1 mg/kg, intravenous bolus, healthy) of 18.7 ± 1.77 µg/mL. It also gave an AUC [2, 7] of 57.3 ± 24.2 µg·h/mL, a Cmax [2, 7] of 3.11 ± 0.887 µg/mL and a Tmax [2, 7] of 4 ± 2 h. It also gave an AUC(0-inf) ([2]; male, rhesus monkey, plasma, sc, 1 mg/kg, SC 1 mg/kg about 24 h after 11.5 Gy, Average of 6 animals, read-out: AUCINF) of 57.3 ± 24.2 µg·h/mL, a half-life ([2]; male, rhesus monkey, plasma, sc, 1 mg/kg, SC 1 mg/kg about 24 h after 11.5 Gy, Average of 6 animals, read-out: T1/2 (converted)) of 8.76 ± 0.621 h and a half-life ([2]; male, rhesus monkey, plasma, sc, 1 mg/kg, SC 1 mg/kg about 24 h after 11.5 Gy, individual animals (ID in c1), read-out: T1/2 (converted)) of 9.21 h. It also gave an AUC [2, 8] of 63.7 ± 21.4 µg·h/mL, a Cmax [2, 8] of 3.13 ± 0.637 µg/mL and a Tmax [2, 8] of 4 ± 2 h. The AUC(0-inf) ([2]; male, rhesus monkey, plasma, sc, 1 mg/kg, SC 1 mg/kg, healthy, Average of 6 animals, read-out: AUCINF) was 63.7 ± 21.4 µg·h/mL, the half-life ([2]; male, rhesus monkey, plasma, sc, 1 mg/kg, SC 1 mg/kg, healthy, Average of 6 animals, read-out: T1/2 (converted)) was 10.5 ± 0.6 h and the Cmax ([2]; male, rhesus monkey, plasma, sc, 1 mg/kg, SC 1 mg/kg, healthy, individual animals (ID in c1)) was 2.39 µg/mL. The half-life ([2]; male, rhesus monkey, plasma, sc, 1 mg/kg, SC 1 mg/kg, healthy, individual animals (ID in c1), read-out: T1/2 (converted)) was 10.6 h, the Cmax ([2]; male, rhesus monkey, plasma, sc, 1 mg/kg, SC post IR) was 3.11 ± 0.887 µg/mL and the Tmax ([2]; male, rhesus monkey, plasma, sc, 1 mg/kg, SC post IR (~24 hours after 11.5 Gy Partial Body Irradiation), 1 mg/kg) was 4 ± 2 h. It also gave an AUC(0-inf) ([2]; male, rhesus monkey, plasma, sc, 1 mg/kg, SC post IR, 1 mg/kg, read-out: exposure (AUCINF)) of 57.3 ± 24.2 µg·h/mL, a half-life ([2]; male, rhesus monkey, plasma, sc, 1 mg/kg, SC post IR, 1 mg/kg, read-out: half-life (converted)) of 8.76 ± 0.621 h and a half-life ([2]; male, rhesus monkey, plasma, sc, 1 mg/kg, SC, healthy, read-out: T½, range of individual subjects) of 9.67 to 10.7 h. The AUC(0-inf) ([2]; male, rhesus monkey, plasma, sc, 1 mg/kg, SC, healthy, single dose 1 mg/kg, read-out: exposure (AUCINF)) was 63.7 ± 21.4 µg·h/mL, the half-life ([2]; male, rhesus monkey, plasma, sc, 1 mg/kg, SC, healthy, single dose 1 mg/kg, read-out: half-life (converted)) was 10.5 ± 0.6 h and the half-life ([2]; male, rhesus monkey, plasma, sc, 1 mg/kg, SC, irradiated animals, read-out: half-life, range of individual subjects) was 7.88 to 9.66 h. For the same compound, the Cmax ([2]; male, rhesus monkey, plasma, sc, 1 mg/kg, healthy, single dose 1 mg/kg) was 3.13 ± 0.637 µg/mL, the Tmax ([2]; male, rhesus monkey, plasma, sc, 1 mg/kg, healthy, single dose 1 mg/kg, mean ± SD) was 4 ± 2 h and the “effects on respiratory parameters” value (Male Sprague-Dawley rats; 1.81 mg/kg) was “No statistically significant or biologically meaningful effects”. For the same compound, the “increase in respiratory rates” value (Male Sprague-Dawley rats; 6.33 mg/kg) was 68%, the “reduction in tidal volume” value (Male Sprague-Dawley rats; 6.33 mg/kg) was 29% and the “respiratory values 24 hours post dose” value (Male Sprague-Dawley rats; 6.33 mg/kg) was “essentially normal”. For the same compound, the “increase in respiratory rates” value (Male Sprague-Dawley rats; 18.1 mg/kg) was 65%, the “reduction in tidal volume” value (Male Sprague-Dawley rats; 18.1 mg/kg) was 32% and the “respiratory values 24 hours post dose” value (Male Sprague-Dawley rats; 18.1 mg/kg, reduced in magnitude) was “still showed effects”. The “dose with no adverse effects on the respiratory system” value (Male Sprague-Dawley rats; male, Sprague-Dawley, rat, in vivo, oral, 24 h) was 1.81 mg/kg.
